Assay [1] has as its target human CMV DNA polymerase UL54 (Human cytomegalovirus (strain AD169) (HHV-5) (Human herpesvirus 5), UniProt P08546). Nature of the assay: CMV polymerase biochemical assay (molecular beacon-based). The method, boiled down: (§1)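 Readout was beacon fluorescence (ex 480, em 535 nm), used to derive IC50. Each dNTP was at 1.25 uM, with 200 nM primer and 100 nM beacon, after a 30-min RT inhibitor preincubation. Enzyme was 625 pM for HSV UL30 (20 min RT reaction) or 100 pM for CMV UL54 (60 min RT), both sf9-expressed MBP fusions, in pH 7.5 Tris buffer with MgCl2.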

Assay [2] concerns the target human HSV DNA polymerase UL30 (Human herpesvirus 1 (strain 17) (HHV-1) (Human herpes simplex virus 1), UniProt P04293). The assay is described as follows: HSV polymerase biochemical assay (molecular beacon-based). The method, boiled down: as §1
The next assay concerns VZV Ellen strain. The assay is described as follows: VZV qPCR assay (cellular herpesvirus replication). The class given is cell-based. Conditions: Human alphaherpesvirus 3, MRC5, 48 h; MRC-5 cells, qPCR after two days; n>3, value (+/- spread). The protocol:
For all viral assays, 10 mM DMSO stock compound solutions were serially diluted in DMSO at 3.16 fold dilutions in 96-well clear round bottom plates. Compounds were then diluted in assay media at 1:20 and subsequently 10 μL of these dilutions were added to cells for final compound concentrations ranging either from 0.0159 μM to 50 μM in 0.5% DMSO/assay media, or from 0.00318 to 10 μM in 0.5% DMSO/assay media.
VZV qPCR assay: The assay uses co-infection with VZV Ellen strain-infected MRC-5 cells (ATCC cat #VR-1367). Viral replication in the presence or absence of compounds was measured by qPCR according to the following procedure: 12,000 uninfected MRC-5 cells were mixed with VZV-infected MRC-5 cells at a ratio of 1 to 10 infected to uninfected cells, in 96-well white-wall clear bottom plates in 90 μL/well of assay media: 4% FBS in EMEM (ATCC cat #30-2003). […] The chosen ratio of infected to uninfected cells gave approximately 3% VZV-positive cells at 6 hours post co-culturing, as detected by immunofluorescent staining of VZV Immediate Early 62 gene. […]
qPCR reactions were carried out in a total reaction volume of 20 μL, using the QuantiFast® Multiplex PCR kit (Qiagen cat #204656). […]
Relative quantification was calculated with the ΔΔCT Method, and then converted into percent inhibitions. […] EC50 values were calculated using XLFit Dose Response One Site Model 205.

The record followed here is US12466821B2 (Novartis AG, priority 2018, dated 2025).

As for `N#Cc1ccc(CNC(=O)c2ccc3n(c2=O)CCN(CC2(S(=O)(=O)C4CC4)CC2)C3=O)cc1` [Example 1, N-(4-cyanobenzyl)-2-((1-(cyclopropylsulfonyl)cyclopropyl)methyl)-1,6-dioxo-2,3,4,6-tetrahydro-1H-pyrido[1,2-a]pyrazine-7-carboxamide], the IC50 (usually the concentration that inhibits the measured activity by half) is 0.0008 µM in assay [1] and 0.0273 µM in assay [2]. Also, in the assay on VZV Ellen strain, a half-maximal effect (EC50) was put at 0.02 µM.
